Experimental data taken from PMC4187893, “Biochemical and Antiparasitic Properties of Inhibitors of the Plasmodium falciparum Calcium-Dependent Protein Kinase PfCDPK1” (Antimicrobial Agents and Chemotherapy, 2014).
Where two headings read alike, the source gives them in different places.

Tests used:
[1] = parameters: method as in PMID 24689770; details: cited from earlier work
[2] = P. berghei mouse model; cited from earlier work
P. falciparum 3D7 = experiment: FACS assay for parasite growth; details: read-out: Parasite growth inhibition EC50; FACS; mean (SD), n = 3
PvCDPK1 = PvCDPK1 (Plasmodium vivax, UniProt A5KBU9); experiment: Rh-ParM ADP sensor IC50 assay, PvCDPK1; details: read-out: IC50 PvCDPK1; Rh-ParM, absence of MTIP; mean (SD), n = 3
PvCDPK1, sequence (A5KBU9 entry or part of it): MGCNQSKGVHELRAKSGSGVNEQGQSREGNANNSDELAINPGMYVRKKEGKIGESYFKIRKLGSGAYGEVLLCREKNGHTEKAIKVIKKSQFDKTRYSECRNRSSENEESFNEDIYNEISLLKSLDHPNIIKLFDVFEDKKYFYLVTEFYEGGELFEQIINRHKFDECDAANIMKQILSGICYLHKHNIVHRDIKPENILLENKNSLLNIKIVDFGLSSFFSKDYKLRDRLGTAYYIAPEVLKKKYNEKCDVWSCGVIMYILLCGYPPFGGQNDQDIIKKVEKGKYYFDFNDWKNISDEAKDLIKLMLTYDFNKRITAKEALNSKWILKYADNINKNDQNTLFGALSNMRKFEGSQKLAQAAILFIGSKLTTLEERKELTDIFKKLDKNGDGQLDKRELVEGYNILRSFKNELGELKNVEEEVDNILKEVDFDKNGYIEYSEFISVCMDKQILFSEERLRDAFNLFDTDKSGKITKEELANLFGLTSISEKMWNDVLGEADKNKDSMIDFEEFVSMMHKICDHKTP

PbCDPK1 = PbCDPK1 (Plasmodium berghei, UniProt A0A509AHB6); experiment: Rh-ParM ADP sensor IC50 assay, PbCDPK1; details: read-out: IC50 PbCDPK1; Rh-ParM, absence of MTIP; mean (SD), n = 3
PbCDPK1, sequence (A0A509AHB6 whole entry): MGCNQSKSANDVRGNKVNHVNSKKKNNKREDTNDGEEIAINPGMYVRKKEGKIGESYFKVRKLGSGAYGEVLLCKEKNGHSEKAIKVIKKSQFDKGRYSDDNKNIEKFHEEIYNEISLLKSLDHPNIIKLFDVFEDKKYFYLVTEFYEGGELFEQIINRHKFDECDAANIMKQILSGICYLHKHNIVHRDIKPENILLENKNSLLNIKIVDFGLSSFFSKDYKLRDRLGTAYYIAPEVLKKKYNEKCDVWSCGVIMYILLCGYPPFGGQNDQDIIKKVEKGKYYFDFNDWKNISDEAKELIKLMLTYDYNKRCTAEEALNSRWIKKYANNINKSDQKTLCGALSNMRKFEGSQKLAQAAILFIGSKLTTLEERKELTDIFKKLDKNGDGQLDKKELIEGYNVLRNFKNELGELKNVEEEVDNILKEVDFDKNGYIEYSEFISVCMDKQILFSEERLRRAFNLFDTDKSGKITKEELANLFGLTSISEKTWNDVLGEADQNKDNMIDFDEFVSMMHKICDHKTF

PfCDPK1 [3] = biological target: T1, PfCDPK1 (Plasmodium falciparum, UniProt P62344); experiment: Thermal shift assay; format: binding; parameters: 50 nM full-length recombinant PfCDPK1 and 8 μM MTIP in assay buffer 1; GST (from vector pGEX6P1) (N, cleaved yes); made in house; host or cells: Escherichia coli BL21 Gold; details: 10 μM compound, relative to DMSO controls
T1 sequence (P62344 whole entry): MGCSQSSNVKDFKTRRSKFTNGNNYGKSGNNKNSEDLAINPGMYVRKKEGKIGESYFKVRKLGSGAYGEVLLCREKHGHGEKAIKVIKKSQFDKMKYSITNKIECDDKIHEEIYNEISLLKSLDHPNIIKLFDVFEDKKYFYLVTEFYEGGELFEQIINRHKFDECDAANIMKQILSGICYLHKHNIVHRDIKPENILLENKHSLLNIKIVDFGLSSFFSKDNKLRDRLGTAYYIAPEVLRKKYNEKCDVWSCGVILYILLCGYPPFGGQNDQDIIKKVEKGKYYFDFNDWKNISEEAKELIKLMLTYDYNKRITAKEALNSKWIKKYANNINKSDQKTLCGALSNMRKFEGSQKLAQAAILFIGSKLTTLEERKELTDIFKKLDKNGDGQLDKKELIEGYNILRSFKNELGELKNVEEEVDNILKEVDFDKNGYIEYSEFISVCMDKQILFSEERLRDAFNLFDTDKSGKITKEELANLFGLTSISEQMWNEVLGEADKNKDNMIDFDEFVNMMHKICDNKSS
Description: Purified recombinant PfCDPK1 was diluted to 1 μM in 10 mM HEPES buffer (pH 7.5) containing 150 mM NaCl, 1 mM Ca^2+, and 1/1,000 SYPRO orange dye (Invitrogen). Test compounds were prediluted to 400 μM in 40% (vol/vol) DMSO in water, and 1 μl of diluted compound was added to 39 μl of enzyme/dye mix in white 96-well quantitative PCR plates (Thermo Scientific) to give a final compound concentration of 10 μM. Reference thermal melting temperatures (Tms) were obtained in parallel by the addition of 1 μl of 40% (vol/vol) DMSO to 39 μl of diluted PfCDPK1. The plates were sealed with transparent adhesive covers (Bio-Rad) and subjected to a temperature gradient from […] at a rate of 1 K/min using a quantitative PCR machine (MX3005P; Stratagene). Fluorescence data were acquired at 1-min intervals using the 6-carboxyfluorescein (FAM)/5-carboxy-X-rhodamine (ROX) filter set (λex = 492 nm; λem = 610 nm), and the raw data were exported to Excel (Microsoft) for analysis. Data were processed to identify the fluorescence maxima and minima, and the midpoints of melting curves were determined by fitting to the Boltzmann equation using XL-fit software (IDBS). Results were expressed as ΔTm values relative to DMSO controls where ΔTm = Tm in the presence of inhibitor − Tm of the DMSO controls.

PfCDPK1 [4] = biological target: T1, PfCDPK1; details: absence of MTIP; for IC50 ratio (IC50 with 1 mM ATP/IC50 with 30 μM ATP): Rh-ParM; for IC50: Rh-ParM ADP detection, mean (SD), n = 2
PfCDPK1 [5] = biological target: T1, PfCDPK1; experiment: Kinase-Glo Plus ATP depletion assay; details: read-out: IC50 ATP depletion, ATP and MTIP at their respective Km values
PfCDPK1 [6] = biological target: T1, PfCDPK1; experiment: Radiometric assay, incorporation of 33P into MTIP; details: for IC50 ratio (ATP depletion/radiometric assay): Kinase-Glo Plus IC50 / radiometric IC50; for IC50: read-out: IC50 Radiometric assay, ATP and MTIP at their respective Km values
[7] = read-out: IC50 With 30 μM ATP, 30 μM ATP
[8] = read-out: IC50 With 1 mM ATP, 1 mM ATP

Structure (SMILES) | IC50 ratio (IC50 with 1 mM ATP/IC50 with 30 μM ATP) (PfCDPK1 [4]) | IC50 (PfCDPK1 [4]; [7]) [nM] | IC50 (PfCDPK1 [4]; [8]) [nM] | further results
NC1CCC(Nc2ccc3ncc(-c4cnc(Nc5ncccc5F)nc4)n3n2)CC1 (stereo not shown) [Compound 2] | – | – | – | mlogD [1]: 0.2; plasma exposure [2]: poor plasma exposure; EC50 (P. falciparum 3D7): 13 nM
CN1CCC(Nc2ccc3ncc(-c4ccc(Nc5ncccc5F)cc4)n3n2)CC1 [Compound 3] | – | – | – | mlogD [1]: 3.2; IC50 (PvCDPK1): < 10 nM
Fc1cccnc1Nc1ccc(-c2cnc3ccc(NC4CCC(N5CCCC5)CC4)nn23)cn1 (stereo not shown) [Compound 4] | – | – | – | mlogD [1]: 2.8; IC50 (PbCDPK1): 43 nM; IC50 (PvCDPK1): < 10 nM
Fc1cccnc1Nc1ccc(-c2cnc3ccc(NC4CCC(N5CCCC5)CC4)nn23)cc1 (stereo not shown) [Compound 5] | – | – | – | mlogD [1]: 3.3
CN1CCC(Nc2ccc3ncc(-c4ccc(Nc5ncc(Cl)cc5F)cc4)n3n2)CC1 [Compound 6] | – | – | – | mlogD [1]: 3.7; IC50 (PbCDPK1): < 10 nM; IC50 (PvCDPK1): < 10 nM; ΔTm PfCDPK1 (PfCDPK1 [3]): 22 K
CC(=O)Nc1cccc(-c2cnc3ccc(NCCc4ccccn4)nn23)c1 [Compound 10] | 27 | 64 | 1700 | IC50 (PfCDPK1 [5]): 65 nM; IC50 ratio (ATP depletion/radiometric assay) (PfCDPK1 [6]): 2.7; IC50 (PfCDPK1 [6]): 24 nM
CC(=O)Nc1cccc(-c2cnc3ccc(NCCc4cccnc4)nn23)c1 [Compound 11] | 28 | 49 | 1380 | IC50 (PfCDPK1 [5]): 65 nM; IC50 ratio (ATP depletion/radiometric assay) (PfCDPK1 [6]): 3.0; IC50 (PfCDPK1 [6]): 22 nM
COc1ccc2ncc(-c3ccc(C(=O)NCc4ccccc4)cc3)n2n1 [Compound 12] | 37 | 107 | 3910 | IC50 (PfCDPK1 [5]): 200 nM; IC50 ratio (ATP depletion/radiometric assay) (PfCDPK1 [6]): 5.9; IC50 (PfCDPK1 [6]): 34 nM
N#Cc1cccc(-c2cnn3ccc(NCCc4cccnc4)nc23)c1 [Compound 13] | 17 | 212 | 3580 | –
CC(=O)Nc1cccc(-c2cnn3ccc(NCCc4cccnc4)nc23)c1 [Compound 14] | 27 | 28 | 745 | IC50 (PfCDPK1 [5]): 52 nM; IC50 ratio (ATP depletion/radiometric assay) (PfCDPK1 [6]): 3.5; IC50 (PfCDPK1 [6]): 15 nM
NC(=O)c1ccc(-c2cnn3ccc(NCCc4cccnc4)nc23)cc1 [Compound 15] | 12 | 23 | 270 | IC50 (PfCDPK1 [5]): 32 nM; IC50 ratio (ATP depletion/radiometric assay) (PfCDPK1 [6]): 2.7; IC50 (PfCDPK1 [6]): 12 nM
O=C(NCc1ccc(N2CCCC2)cc1)c1ccc(-n2cnc3cccnc32)cc1 [Compound 16] | 39 | 77 | 2970 | –
O=C(NCc1cccc(N2CCCC2)c1)c1ccc(-n2cnc3cccnc32)cc1 [Compound 17] | 27 | 51 | 1380 | –
CC(C)Oc1ccc(CNC(=O)c2ccc(-n3cnc4cccnc43)cc2)cc1 [Compound 18] | 53 | 86 | 4530 | –
CN(C(=O)c1cc(COc2ccc(-n3cncn3)cc2)on1)C1CCCCC1 [Compound 19] | 336 | 72 | 24200 | –
CN(C(=O)c1cc(COc2ccc(-n3ccnc3)cc2)on1)C1CCCCC1 [Compound 20] | 44 | 728 | 31700 | –
Cc1c(C(=O)N(C)C2CCCCC2)noc1COc1ccc(-n2cncn2)cc1 [Compound 21] | 41 | 143 | 5930 | –
